# Structures can show the parent of a compound that is named as a salt. Where two headings read alike, the source gives them in different places.
# Assays:
# [1] = molecular target: T1, 5-HT2 receptor (Rattus norvegicus, UniProt P14842); experiment: 5-HT2 functional assay: [Ca2+]i mobilization (FLIPR) in A7r5 cells; format: cell-based; conditions: for Emax / Efficacy (Emax, %): percentage of maximum 5-HT-induced response; for Emax: read-out: Efficacy (Emax, %); for EC50: A7r5 rat vascular smooth muscle cells, FLIPR
# T1 construct: endogenous in cells; host or cells: A7r5 rat vascular smooth muscle cells
# Protocol: 5-HT2 Functional Assay: [Ca^2+]i Mobilization
# The receptor-mediated mobilization on intracellular calcium ([Ca^2+]i) was studied using the Fluorescence Imaging Plate Reader (FLIPR) instrument. Rat vascular smooth muscle cells, A7r5, were grown in a normal media of […] and 10 μg/mL gentamycin. Confluent cell monolayers were trypsinized, pelleted, and re-suspended in normal media. Cells were seeded in a 50 μL volume at a density of 20,000 cells/well in a black wall, 96-well tissue culture plate and grown for 2 days.
# On the day of the experiment, one vial of FLIPR Calcium Assay Kit dye was re-suspended in 50 mL of a FLIPR buffer consisting of Hank's Balanced Salt Solution (HBSS), 20 mM HEPES, and 2.5 mM probenecid, pH 7.4. Cells were loaded with the calcium-sensitive dye by addition of an equal volume ([…]) to each well of the 96-well plate and incubated with dye for 1 h at 23° C.
# Compounds were diluted 1:50 in […]. For “hit” screening, compounds were further diluted 1:10 in FLIPR buffer and tested at a final concentration of 10 μM.
# The compound plate and cell plate were placed in the FLIPR instrument. At the beginning of an experimental run, a signal test was performed to check the basal fluorescence signal from the dye-loaded cells and the uniformity of the signal across the plate. The basal fluorescence was adjusted between 8000-12000 counts by modifying the exposure time, the camera F-stop, or the laser power. Instrument settings for a typical assay were the following: laser power 0.3-0.6 W, camera F-stop F/2, and exposure time 0.4 sec. An aliquot (25 μL) of the test compound was added to the existing 100 μL dye-loaded cells at a dispensing speed of 50 μL/sec. Fluorescence data were collected in real-time at 1.0 sec intervals for the first 60 secs and at 6.0 sec intervals for an additional 120 secs.
# [2] = tested on: intraocular pressure (IOP); experiment: Acute IOP response in lasered (hypertensive) eyes of conscious cynomolgus monkeys; format: in vivo; conditions: lasered monkey eye
# Protocol: Acute IOP Response in Lasered (Hypertensive) Eyes of Conscious Cynomolgus Monkeys
# Intraocular pressure (IOP) can be determined with an Alcon Pneumatonometer after light corneal anesthesia with 0.1% proparacaine. Eyes are washed with saline after each measurement. After a baseline IOP measurement, test compound is instilled in one 30 μL aliquot to the right eyes only of nine cynomolgus monkeys. Vehicle is instilled in the right eyes of six additional animals. Subsequent IOP measurements are taken at 1, 3, and 6 hours.
# [3] = molecular target: brain 5-HT2 receptors (Rattus norvegicus, UniProt P14842); experiment: 5-HT2 receptor binding assay ([125I]DOI competition); conditions: [125I]DOI displacement, rat or human cerebral cortex homogenates
# Protocol: 5-HT2 Receptor Binding Assay
# The assay mixture is incubated for 1 hour at 23° C. in polypropylene tubes and the assays terminated by rapid vacuum filtration over Whatman GF/B glass fiber filters previously soaked in 0.3% polyethyleneimine using ice-cold buffer. Test compounds (at different concentrations) are substituted for methiothepin. Filter-bound radioactivity is determined by scintillation spectrometry on a beta counter. The data are analyzed using a non-linear, iterative curve-fitting computer program [Trends Pharmacol. Sci., 16, 413 (1995)] to determine the compound affinity parameter. The concentration of the compound needed to inhibit the [^125I]DOI binding by 50% of the maximum is termed the IC50 or Ki value.
# [4] = EC50, nM (5-HT2 functional, [Ca2+]i mobilization)
# [5] = 1 hour after single topical ocular instillation of 300 μg
# [6] = 3 hours after single topical ocular instillation of 300 μg
# [7] = 6 hours after single topical ocular instillation of 300 μg
# T1 sequence (P14842 whole entry): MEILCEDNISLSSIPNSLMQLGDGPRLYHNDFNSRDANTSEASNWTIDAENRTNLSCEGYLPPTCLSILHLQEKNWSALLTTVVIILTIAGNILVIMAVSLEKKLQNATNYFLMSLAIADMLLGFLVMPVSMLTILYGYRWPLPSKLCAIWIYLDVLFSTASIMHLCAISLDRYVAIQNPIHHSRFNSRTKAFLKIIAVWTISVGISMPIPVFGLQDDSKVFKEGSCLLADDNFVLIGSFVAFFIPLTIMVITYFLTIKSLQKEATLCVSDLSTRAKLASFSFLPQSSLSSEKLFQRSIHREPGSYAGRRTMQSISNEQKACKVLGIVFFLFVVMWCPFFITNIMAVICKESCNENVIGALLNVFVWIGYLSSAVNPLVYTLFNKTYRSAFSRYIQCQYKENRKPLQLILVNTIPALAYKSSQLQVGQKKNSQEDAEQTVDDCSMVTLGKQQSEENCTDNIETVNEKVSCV
# Chain of brain 5-HT2 receptors (P14842 whole entry): as above
smiles,measurement,setting,value
"COc1cc(CC(C)N)c(OC)c2c1CCOC2 (racemic) [Compound A, 2-(5,8-Dimethoxy-isochroman-7-yl)-1-methyl-ethylamine hydrochloride]",Emax,[1]; A7r5 cells,55%
same,EC50,[1]; [4],267 nM
"COc1cc(CC(C)N)c(OC)c2c1CCOC2.Cl (single isomer, unassigned; (+)) [Compound C, (+) 2-(5,8-Dimethoxy-isochroman-7-yl)-1-methyl-ethylamine hydrochloride]","Efficacy (Emax, %)","[1]; A7r5 cells, hydrochloride",69%
same,EC50,[1]; [4],43 nM
"COc1cc(CC(C)N)c(OC)c2c1CCOC2.Cl (single isomer, unassigned; (-)) [Compound B, (−) 2-(5,8-Dimethoxy-isochroman-7-yl)-1-methyl-ethylamine hydrochloride]",IOP lowering (%),[2]; [5],15.8%
same,IOP lowering (mmHg),[2]; [5],6.8 mmHg
same,IOP lowering (%),[2]; [6],28.5%
same,IOP lowering (mmHg),[2]; [6],12.5 mmHg
same,IOP lowering (%),[2]; [7],21.3%
same,IOP lowering (mmHg),[2]; [7],9.6 mmHg
same,Emax,"[1]; A7R5, A7r5 cells",55%
same,EC50,[1]; [4],39 nM
"COc1cc(CC(C)N)c(OC)cc1I (stereo not drawn) [DOI, reference compound]",IC50,[3],0.33 nM
same,"Efficacy (Emax, %)",[1]; A7r5 cells,31%
same,EC50,"[1]; read-out: EC50, nM (5-HT2 functional, [Ca2+]i mobilization)",30.2 nM

# Reference: US7396856B2, “Benzopyran analogs and their use for the treatment of glaucoma” (Alcon, Inc., priority 2002, dated 2008)
